In PubChem BioAssay (NCI) one finds TGI and GI50 data, which are given here for 24 molecules.

Holding throughout (experiment): NCI-60 cell line screen, 48 h
In test [1] the test system is A498 renal.
For test [2], the system named is COLO 205 colon.
Test [3] has as its system K-562 leukemia.
Test [4] deals with LOX IMVI melanoma.
In test [5] the test system is M14 melanoma.
For test [6], the system named is MALME-3M melanoma.
Test [7] relates to OVCAR-8 ovarian.
Test [8] deals with RXF 393 renal.
Test [9] has as its system SK-OV-3 ovarian.
Test [10] relates to SNB-75 CNS.
Test [11] has as its system U251 CNS.
The test system of test [12] is UO-31 renal.
In test [13] the test system is T-47D breast.

Where “and” joins values, the source holds several entries; their conditions need not be identical. Equal entries are not always repeated.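 Method: 48-hour compound exposure of cells in 96-well plates, five concentrations, linear interpolation of endpoints. At the GI50, growth is halved. TGI: concentration producing complete growth inhibition.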

As to `CCOP(=O)(OCC)/C(C#N)=C/c1cnc(-c2ccccc2)[nH]1`, the TGI in test [1], in test [2], in [3], in test [4], in test [5] and in [6] was more than 100 µM each time. For the same molecule, the TGI in test [7], in [8], in [9], in test [10], in test [11] and in [12] was more than 100 µM each time.
For the molecule `CCOC(=O)C1Cc2[nH]c3ccccc3c2C(C)C1C` (centres undefined), the TGI in test [1] is 34.4 µM; in test [2], 32.6 µM; in [3], more than 100 µM; in [4], 28.2 µM; in [5], 30.7 µM; in [6], 33.2 µM. The TGI in test [7] stood at 13.4 µM; in test [9] it was 45.3 µM; in test [10] it was 34.4 µM; in [11] it was 35.1 µM; in test [12], 35.8 µM.
Take `COc1ccc(C(C#N)NNC(=O)c2ccccc2O)cc1OC` (centres undefined): the TGI in test [2] was more than 100 µM; in test [3], more than 100 µM; in test [4], 59.3 µM; in [5], 46.7 µM; in [6] it was more than 100 µM; in test [7] it was more than 100 µM. Besides, the TGI is 36.4 µM in test [8]; more than 100 µM in [9]; more than 100 µM in test [10]; more than 100 µM in test [11]; 2.2 µM in test [12].
As for `CC1(C)OCC(COC(=O)C=[N+]=[N-])O1` (centres undefined), the TGI in test [1], in [2], in test [4], in test [6], in test [8] and in test [9] was more than 100 µM throughout. Besides, the TGI in test [11] and in [12] was more than 100 µM each time.
`COc1cccc(-c2cc(=O)c3ccccc3o2)c1N`: the TGI was more than 100 µM in test [2]; more than 100 µM in test [3]; more than 100 µM in test [4]; more than 100 µM in test [5]; more than 56 µM in test [6]; more than 100 µM in test [7]. Also, the TGI in [8] is more than 100 µM; in test [9] it was more than 100 µM; in [10], more than 100 µM; in [13] it was more than 57.3 µM; in test [11] it was more than 100 µM; in test [12] it was more than 100 µM.
As for `COc1ccc(-c2cc(-c3ccco3)c(C#N)c(=S)n2C2OC(COC(C)=O)C(OC(C)=O)C(OC(C)=O)C2OC(C)=O)cc1` (centres undefined), the TGI in test [2] is 16.2 µM; in [3], more than 100 µM; in test [4], 15.1 µM; in test [5], 17.7 µM; in test [6] it was 16.9 µM; in [7], 13 µM. For the same molecule, the TGI is 21.3 µM in [8]; 26.8 µM in [9]; 17.7 µM in test [10]; 21.7 µM in test [13]; 17.8 µM in test [11]; 27.2 µM in test [12].
Regarding `CCOC(=O)CNC(=O)C(CSCc1ccc(Br)cc1)NC(=O)CCC(N)C(=O)OCC` (centres undefined), the TGI in test [2], in test [3], in [5], in test [7], in [8] and in test [9] was more than 50 µM throughout. Moreover, the TGI in test [10], in test [11] and in [12] was more than 50 µM throughout.
With `NC(C(F)(F)F)(C(F)(F)F)P(=O)(Cc1ccccc1)Cc1ccccc1`, the TGI in test [2], in test [3], in test [4], in [5], in test [6] and in test [7] was more than 100 µM throughout. Also, the TGI in test [8], in test [9], in [10], in test [13], in test [11] and in test [12] was more than 100 µM throughout.
Turning to `OCC1CCCCCCCCCCC12SCCCS2` (centres undefined), the TGI in test [2], in [3], in [4], in [5], in test [6] and in test [9] was more than 100 µM each time. Besides, the TGI in test [10], in [13], in test [11] and in test [12] was more than 100 µM throughout.
With `COC(=O)C(CCC#N)(CCC#N)C(=O)OC`, the TGI in test [2], in test [3], in test [4], in [5], in test [6] and in test [7] was more than 100 µM throughout. Besides, the TGI in [9], in test [11] and in test [12] was more than 100 µM throughout.
Regarding `c1ccc(C2C3=C(Nc4ncnn42)c2ccccc2C3)cc1` (centres undefined), the TGI is more than 100 µM in [1]; 25.8 µM in test [2]; more than 100 µM in test [3]; 73.2 µM in test [4]; more than 100 µM in test [5]; more than 100 µM in [6]. In addition, the TGI was more than 100 µM in test [7]; more than 100 µM in [8]; more than 100 µM in test [9]; more than 100 µM in test [10]; 17.7 µM in [11]; more than 100 µM in test [12].
On to `O=C(NNC(=S)Nc1ccc(Cl)cc1)c1cc(-c2ccccc2)nc2ccccc12`, for which the TGI in test [2] was determined as 18.2 µM; in test [3], 93.1 µM; in [5] it was 18.7 µM; in test [6] it was 17.5 µM; in test [7], 29.1 µM; in test [8], 21.9 µM. For the same molecule, the TGI in [9] was 19.8 µM; in test [10], 39.8 µM; in [13], 11.6 µM; in test [11] it was 16.1 µM; in test [12] it was 18.1 µM.
For the molecule `Nc1cc(CO)cc(Nc2nc3ccc(Cl)cc3c3[nH]c4ccccc4c23)c1`, the TGI was 11.6 µM in test [2]; 27.3 µM in [3]; 16.7 µM in test [5]; 15.8 µM in [6]; 18.5 µM in test [7]; 22.2 µM in test [9]. The figures for the TGI in test [13], in test [11] and in test [12] were 20.8 µM, 23.9 µM and 11.6 µM, respectively.
Regarding `Nc1nc2cc3nc(N)c(N)nc3cc2nc1N`, the TGI in [1], in [2], in test [4], in test [5], in [6] and in [7] was more than 100 µM in each case. The TGI in test [8], in [9], in test [10], in [11] and in [12] was more than 100 µM throughout.
As to `O=c1[nH]n2c(=O)cc[nH]c2c1-c1nnns1`, the TGI in test [1], in test [2], in test [3], in [4], in [5] and in test [6] was more than 100 µM throughout. Further, the TGI in [8], in test [9], in [10], in test [11] and in [12] was more than 100 µM each time.
Regarding `Cc1ccc(-c2c(C#N)c(-c3ccccc3)n(NS(=O)(=O)c3ccccc3)c(=O)c2C#N)cc1`, the TGI in test [1], in test [2], in test [3], in [4], in test [5] and in test [6] was more than 100 µM throughout. The TGI in [7], in test [8], in test [9], in test [10] and in test [11] was more than 100 µM throughout.
On to `COc1ccc(C2Oc3c(cc(O)c(OC)c3C)[C@@H]2C)cc1OC` (some centres undefined), for which the TGI in test [1], in [2], in test [3], in test [4], in test [5] and in test [6] was more than 100 µM throughout. Also, the TGI in test [7], in test [8], in test [9], in test [10], in test [11] and in [12] was more than 100 µM each time.
`COc1cc(-c2cc(=O)c3cc4c(cc3[nH]2)OCO4)cc(OC)c1O`: the TGI in test [2], in [3], in [4], in [5], in test [7] and in [8] was more than 10 µM throughout. For the same molecule, the TGI in test [9], in [10], in test [13], in [11] and in [12] was more than 10 µM throughout.
`Cn1cc2ccccc2c1-c1nc(N)nc(F)n1`: the TGI in test [1] was 53.5 µM; in [2] it was more than 100 µM; in [3], more than 100 µM; in test [4], more than 100 µM; in test [5], more than 100 µM; in [6], more than 100 µM. The TGI in test [7], in [8], in test [9], in test [10], in test [11] and in [12] was more than 100 µM in each case.
In the case of `CC(=O)OCC1OC(OC(C)(C)CC/C=C(\C)[C@@H]2C/C=C(\C)CC/C=C(\C)CC2)C(O)C(O)C1OC(C)=O` (some centres undefined), the GI50 was > 100 µM and 24.4 µM in test [1]; 35.7 µM and 15.8 µM in test [2]; 60 µM and 19.7 µM in test [5]; > 100 µM and 18.5 µM in test [9]; 39.3 µM in [11]; 53.4 µM and 12.7 µM in [12]. The TGI in [1] was > 100 µM and 44.8 µM; in [2] it was 76.9 µM and 32.5 µM; in test [3] it was 61.4 µM and > 100 µM; in [4], 33.5 µM and 54.1 µM; in test [5] it was > 100 µM and 47.8 µM; in test [6], 56.4 µM and 34.5 µM. The TGI in test [7] was 82.3 µM and 43.5 µM; in test [8], more than 100 µM; in test [9], > 100 µM and 34 µM; in test [10] it was > 100 µM and 31.8 µM; in test [11], more than 100 µM; in [12], > 100 µM and 25.6 µM.
In the case of `COC(=O)CC(C(C(=O)OC)C(=O)OC)N1C(=O)OCC1c1ccccc1` (centres undefined), the TGI in test [1], in test [2], in test [3], in [4], in test [5] and in [6] was more than 100 µM in each case. In addition, the TGI in [7], in [8], in test [9], in test [10], in test [11] and in test [12] was more than 100 µM each time.
On to `S=C(N/N=C\C=N/NC(=S)N1CCCCC1)N1CCCCC1`, for which the TGI in test [1] is more than 100 µM; in test [2], more than 100 µM; in [3], more than 100 µM; in test [4], more than 100 µM; in test [5], more than 100 µM; in test [6], more than 35 µM. Also, the TGI in test [7] was more than 100 µM; in [8], 6.06 µM; in [9], more than 100 µM; in test [10], more than 100 µM; in test [11], more than 100 µM; in [12], more than 63.1 µM.
In the case of `O=C(/C=C/c1ccc(O)c([N+](=O)[O-])c1)CC(=O)/C=C/c1ccc(O)c([N+](=O)[O-])c1`, the TGI in test [2] is more than 100 µM; in test [4], 27.5 µM; in test [5], more than 100 µM; in [7], 39.6 µM; in test [8], more than 100 µM; in [9] it was more than 100 µM. Further, the TGI in test [10] was more than 100 µM; in test [11], 55.3 µM; in [12] it was more than 100 µM.
On to `CCN1CC2=C(NC(=S)NC2c2ccc(Cl)cc2)/C(=C/c2ccc(Cl)cc2)C1` (centres undefined), for which the TGI was 62.1 µM in test [1]; more than 100 µM in test [2]; more than 100 µM in test [3]; more than 100 µM in test [4]; more than 100 µM in test [5]; more than 100 µM in test [6]. In addition, the TGI in test [7], in [8], in test [9], in test [10], in [11] and in [12] was more than 100 µM throughout.
